Where two headings read alike, the source gives them in different places.
Key:
[1] = test system: HIV-1 with WT (wild type) RT in P4 cells; test: Anti-HIV assay on P4 cell line, WT RT; format: cell-based
Description: (§1) For the antiviral and the cytotoxicity assays, the drugs were diluted in complete DMEM medium. In these experiments, drugs were diluted in triplicate wells in a 96-well plate in six, 5 fold serial dilutions.
(§2) Two days later, co-cultivation with SupT1 cells (a human T-cell lymphoma cell line) was initiated to facilitate rapid production of progeny virions. Production of virus was measured by using the Innotest HIV Antigen mAb p24 kit (Innogenetics). At the peak of production cultures were harvested and filtered. The virus stocks were stored at −80° C. until used.
Anti-HIV activity and cytotoxicity of the compounds were tested on a P4 cell line. […] The P4 cells were cultured in complete DMEM medium supplemented with 10% fetal bovine serum (FBS), 0.5% of Penicillin/Streptomycin and G418 at 0.5 mg/ml. Exponentially growing cells were trypsinized, centrifuged and split twice weekly at 5.10^4 cells/ml.
The P4 cells are HIV-infectible Hela-CD4 cells that carry the bacterial lacZ gene under the control of the HIV-1 long terminal repeat (LTR). In this cell line, transcription of the LacZ gene is driven by the HIV-1 LTR. […] In other words, in this system, the expression level of the β-galactosidase gene is proportional to the viral replication.
(§3) Briefly, in the anti-HIV assay 100 Ål of P4 cells were plated in 96-well plate at a concentration of 0.4 10^5 cells/ml and incubated at 37° C., 5% CO2. After 48 h, the medium was removed and 100 Ål of the different drugs dilutions were added to the cells. Four hours after the addition of the drugs all cells were infected with equal amount of cell-free virus, corresponding to 100 ng of HIV p24 antigen. After 48 h of incubation at 37° C., 5% CO2, β-galactosidase activity was measured using chlorophenol red-β-D-galactopyranoside assays.
Each assay was performed a minimum of three times. The 50% effective concentration (Ec50) was calculated from each dose response curve using the CurveExpert 1.3 software.

[2] = test system: HIV-1 mutant Cys188RT in P4 cells; test: Anti-HIV assay on P4 cells, Cys188RT mutant; format: cell-based
Text: (§4) In order to introduce mutation(s) at the level of the pol gene coding for the RT in the pNL4-3 plasmid containing the complete viral genome (Adachi et al., 1986. J. Virol., Vol. 59 p 284-291) we used the “Quick change mutagenesis kit” (Stratagene). The following mutations were separately introduced in pNL4-3: L100I, K103N, V108I, Y181C, Y188C, and the double mutations K103N/V108I. These mutations were chosen because of the resistance that they confer to existing NNRTI. The production procedure of the mutant viral stocks is identical to the one described above.
Anti-HIV activity and cytotoxicity of the compounds were tested on a P4 cell line. The P4 cell line (Clavel & Charneau, 1994. J. Virol., Vol. 68 p 1179-1185) was provided by Dr. François Clavel (Unité de recherche antivirale de l'hôpital Xavier Bichat Paris: Inserm). The P4 cells were cultured in complete DMEM medium supplemented with 10% fetal bovine serum (FBS), 0.5% of Penicillin/Streptomycin and G418 at 0.5 mg/ml. Exponentially growing cells were trypsinized, centrifuged and split twice weekly at 5.10^4 cells/ml.
The P4 cells are HIV-infectible Hela-CD4 cells that carry the bacterial lacZ gene under the control of the HIV-1 long terminal repeat (LTR). In this cell line, transcription of the LacZ gene is driven by the HIV-1 LTR. As such, the cytoplasmic accumulation of β-galactosidase is strictly dependent on the presence of the HIV transactivator Tat produced during the intracellular viral replication (Clavel & Charneau, 1994. J. Virol., Vol. 68, p. 1179-1185). In other words, in this system, the expression level of the β-galactosidase gene is proportional to the viral replication.
as §3
The absorbance was measured on a Benchmark™ Microplate Reader (Biorad) (λ=570 nm) and compared with 12 cell control replicates (no virus or drug added) and 12 virus control wells (no drug added). Each assay was performed a minimum of three times. The 50% effective concentration (Ec50) was calculated from each dose response curve using the CurveExpert 1.3 software. As Nevirapine activity corresponds to its published values (10-100 nM), the data are consistent with other measures of viral replication.

[3] = target: T1, HIV-1 reverse transcriptase (Human immunodeficiency virus type 1 group M subtype B, UniProt P04585); test: HIV-1 in vitro reverse transcriptase activity (fixed-time RNA dependent DNA polymerase assay); format: biochemical; conditions: residual RT activity, compound at 10 μM; RT activity without compound set at 100%
T1 construct: fixed-time assay for HIV-1 reverse transcriptase RNA dependent DNA polymerase activity; RT was purchased from Calbiochem; purchased Calbiochem CAL382129-500
Description: For the in vitro inhibition studies of the HIV-1 reverse transcriptase activity, stock solutions of the compounds of the present invention were prepared in dimethyl sulfoxide at a final concentration of 10 mM and kept at room temperature. Nevirapine was purchased from Boehringer Ingelheim. Efavirenz was received from the NIH AIDS Research and Reference Reagent Program.
In vitro inhibition studies used a fixed-time assay for HIV-1 reverse transcriptase RNA dependent DNA polymerase activity. RT was purchased from Calbiochem (ref CAL382129-500). One unit of RT corresponds to the amount of enzyme which incorporates one nanomole of [^3H]TTP in 10 minutes at 37° C.
Assays were performed in a final volume of 50 μl. […] Reaction mixtures were incubated at 37° C. for 10 min. The incorporation rate was determined by a standard trichloroacetic acid precipitation procedure (adapted from Current protocols in molecular biology. Eds Wiley, MGH Harvard medical school) and liquid scintillation counting using a Wallac scintillation counter.
The in vitro activity of the compounds, at a final concentration of 10 μM, on the reverse transcriptase (RT) activity of HIV-1 is derivable from the relative (%) reduction in RT activity. Hereby, the RT activity in the absence of any of the compounds is set at 100%.

[4] = test system: P4 cells; test: Cytotoxicity (CC50), MTT assay on P4 cells; format: cell-based; conditions: 3 days
Description: as §1
(§5) The 50% cytotoxic concentration (CCso) was determined using a protocol adapted from Pauwels et al. (1988. J. Virol. Methods 20(4):309-21). Briefly, flat bottom 96-well plates were filled with 50 μl of complete medium containing 5.10^3 P4 cells. 2 hours later 50 μl of drug solution were added to the cells. Drugs (dissolved in DMEM, see above) were diluted in six, 5-fold serial dilutions from stock solutions in triplicate wells of a 96-well plate. Cells and compounds were incubated at 37° C. in growth medium for 3 days. Cell viability was determined by MTT assays using the Roche Cell Proliferation KIT. The absorbance (λ=570 nm) was measured on a Benchmark™ Microplate Reader (Biorad) and compared with 12 cell control replicates (no drug added). Each assay was performed at least three times for a total of at least nine replicate wells. This method detects both cytostatic and cytolytic effects of drugs.

[5] = Cytotoxicity (CC50), MTT assay on P4 cells; format: cell-based; conditions: human
Description: as §1, §5

[6] = test system: HIV-1 with WT (wild type) RT in TZM-bl cells; test: Anti-HIV assay on TZM-bl cell line, WT RT; format: cell-based
Description: as §2, with “Wurzburg Jurkat T cells (subclone JR) were transfected with 10 μg of the circularly permuted infectious molecular clone HIVNL4-3 (Adachi et al., 1986. J. Virol, 59 (2), p 284-291). Two” for “Two”
(§6) Anti-HIV activity and cytotoxicity of the compounds were tested on the TZM-b1 cell line. The TZM-b1 cell line (Wei et al. 2002. Antimicrob. Agents Chemother. Vol. 46, p 1896-1905) was received from the NIH AIDS Research and Reference Reagent Program. These cells were cultured in complete DMEM medium supplemented with 10% fetal bovine serum (FBS), and 1% Penicillin/Streptomycin. Exponentially growing cells were trypsinized, centrifuged and split twice weekly at 5 10^4 cells/ml.
(§7) The anti-HIV assay with TZM-b1 cells is essentially the same as described above with P4 cells. The main difference between the two cell lines is that the TZM-b1 cells express at their surface both the CD4 and CCR5 proteins, acting as receptor and co-receptor for HIV entry, respectively (Wei et al. 2002. Antimicrob. Agents Chemother. Vol. 46, p 1896-1905). This feature makes the cells very sensitive to infection by the virus. The TMZ-b1 cells were infected with equal amount of cell-free virus, corresponding to 10 ng of HIV p24 antigen. This amount is ten times lower than the amount used to infect the P4 cells.

[7] = test system: HIV-1 mutant Asn103/Ile108RT in TZM-bl cells; test: Anti-HIV assay on TZM-bl cells, Asn103/Ile108RT double mutant; format: cell-based; conditions: TZM-bl, double mutant Asn103/Ile108RT; read-out: EC50 Asn103/Ile108RT TZM-bl
Text: as §4, §6, §7

[8] = test system: HIV-1 mutant Cys188RT in TZM-bl cells; test: Anti-HIV assay on TZM-bl cells, Cys188RT mutant; format: cell-based; conditions: TZM-bl, mutant Cys188RT; read-out: EC50 Cys188RT TZM-bl
Text: as §4, §6, §7

[9] = test system: HIV-1 mutant Cys181RT in TZM-bl cells; test: Anti-HIV assay on TZM-bl cells, Cys181RT mutant; format: cell-based; conditions: TZM-bl, mutant Cys181RT; read-out: EC50 Cys181RT TZM-bl
Text: as §4, §6, §7

[10] = P4 cell line, WT RT, read-out: EC50 WT
[11] = Table 8, effect of the R2 substituent, cell line not given, read-out: EC50 WT
[12] = Table 8, effect of the R2 substituent, cell line not given, read-out: EC50 Cys188RT
[13] = Human immunodeficiency virus 1, P4 cell line, WT RT, read-out: EC50 WT

CCOC(=O)c1c(OC2CCCCCC2)c(CC)c(C)[nH]c1=O [Z25]
EC50 [1, 10]: 480 nM
EC50 [1, 11]: 480 nM
activity on Cys188 mutant strains compared with the cyclohexyl derivative [2]: more active on Cys188 mutant strains than the cyclohexyl derivative
EC50 [2, 12]: 3280 nM
Relative (%) RT activity in vitro (compound added at 10 μM) [3]: 34.6%
CC50 [4]: 81000 nM

CCOC(=O)c1c(OC2CCCC(C)C2)c(CC)c(C)[nH]c1=O (centres unmarked) [Z30]
EC50 [1, 10]: 520 nM
Relative (%) RT activity in vitro (compound added at 10 μM) [3]: 22.0%
CC50 [4]: > 100000 nM

CCc1c(C)[nH]c(=O)c(C(=O)OCCN(CC)CC)c1OC1CC(C)CC(C)C1 (centres unmarked) [Z53]
Relative (%) RT activity in vitro (compound added at 10 μM) [3]: 34.3%

CCc1c(C)[nH]c(=O)c(N)c1OC1CC(C)CC(C)C1 (centres unmarked) [Z96inv]
Relative (%) RT activity in vitro (compound added at 10 μM) [3]: 25.4%

CCc1c(C)[nH]c(=O)c(COC(=O)CCl)c1OC1CCCCCC1 [Z33, [4-(cycloheptyloxy)-5-ethyl-6-methyl-2-oxo-1,2-dihydropyridin-3-yl]methyl chloroacetate]
EC50 [1, 13]: 1030 nM
SI (selectivity index = CC50/EC50) ([1]; P4 cell line, WT RT): 52
Relative (%) RT activity in vitro (compound added at 10 μM) [3]: 42.0%
melting point: 123 °C
CC50 at 3 days [5]: 54000 nM

CCOC(=O)c1c(OC2CCCCC2Cl)c(CC)c(C)[nH]c1=O (centres unmarked) [Z12]
EC50 [1, 10]: 3090 nM
Relative (%) RT activity in vitro (compound added at 10 μM) [3]: 63.7%
CC50 [4]: > 100000 nM

CCc1c(C)[nH]c(=O)c(CC)c1OC1CC(C)CC(C)C1 (centres unmarked) [Z167]
EC50 [6]: < 1 nM
EC50 [7]: 129 nM
EC50 [8]: < 1 nM
EC50 [9]: 7 nM

CCOC(=O)c1c(OC2CCCCCCC2)c(CC)c(C)[nH]c1=O [Z54]
EC50 [1, 10]: 1350 nM
Relative (%) RT activity in vitro (compound added at 10 μM) [3]: 24%
CC50 [4]: 58000 nM

CCOC(=O)c1c(OC(=O)C=C(C)C)c(CC)c(C)[nH]c1=O [M18, ethyl 5-ethyl-6-methyl-4-[(3-methylbut-2-enoyl)oxy]-2-oxo-1,2-dihydropyridine-3-carboxylate]
EC50 ([1]; Human immunodeficiency virus 1, read-out: EC50 WT): 5820 nM
SI (selectivity index = CC50/EC50) ([1]; P4 cell line, WT RT): >17
Relative (%) RT activity in vitro (compound added at 10 μM) [3]: 70.8%
melting point: 166 °C
CC50 at 3 days [5]: > 100000 nM

CCOC(=O)c1c(OC2CC(C)CC(C)C2)c(CC)c(C)[nH]c1=O (single isomer, unassigned) [Z37A]
EC50 [1, 10]: 240 nM
Relative (%) RT activity in vitro (compound added at 10 μM) [3]: 7.6%
CC50 [4]: 63000 nM

CCc1c(C)[nH]c(=O)c(CO)c1OC1CCCCCC1 [Z32, 4-(cycloheptyloxy)-3-(hydroxymethyl)-5-ethyl-6-methylpyridin-2(1H)-one]
EC50 [1, 13]: 1160 nM
SI (selectivity index = CC50/EC50) ([1]; P4 cell line, WT RT): 47
Relative (%) RT activity in vitro (compound added at 10 μM) [3]: 44.0%
melting point: 146 °C
CC50 at 3 days [5]: 55000 nM

CCOC(=O)c1c(OC2CCCC2)c(CC)c(C)[nH]c1=O [reference compound]
EC50 [1, 11]: 1910 nM

CCOC(=O)c1c(OC2CCC(CC)CC2)c(CC)c(C)[nH]c1=O (centres unmarked) [Z55]
Relative (%) RT activity in vitro (compound added at 10 μM) [3]: 40.3%

CCOC(=O)c1c(OC2CCCCC2)c(CC)c(C)[nH]c1=O [reference compound]
EC50 [1, 11]: 770 nM
EC50 [2, 12]: 6500 nM

CCOC(=O)c1c(OC2CC(C)CC(C)C2)c(CC)c(C)[nH]c1=O (centres unmarked) [Z37, ethyl 4-[(3,5-dimethylcyclohexyl)oxy]-5-ethyl-6-methyl-pyridine-2(1H)-one-3-carboxylate]
EC50 [1, 13]: 43 nM
SI (selectivity index = CC50/EC50) ([1]; P4 cell line, WT RT): 1349
activity on Cys188 mutant strains compared with the cyclohexyl derivative [2]: more active on Cys188 mutant strains than the cyclohexyl derivative
EC50 ([2]; Human immunodeficiency virus 1, read-out: EC50 Cys188RT): 6 nM
Relative (%) RT activity in vitro (compound added at 10 μM) [3]: 8.3%
melting point: 108 °C
CC50 at 3 days [5]: 58000 nM
